Values of other authors as cited in patent US4698328A, “Method of increasing bone mass” (The General Hospital Corporation, priority 1986, dated 1987).

Settings: osteoporosis in humans; Reeve et al. 1980

Q: For “hPTH (1-34): fragment of human parathyroid hormone: first thirty-four amino acid residues (SVSEIQLMHNLGKHLNSMERVEWLRKKLQDVHNF; Parathyroid hormone; UniProt P01270 32-65, looked up, fragment)”, which axial trabecular bone is on record?
A: considerable increase

Q: What about the “calcium retention, and hence total bone mass” value of the same substance?
A: improved in only about half of these patients
